# Experimental data from ChEMBL document CHEMBL5137113, “Identification of Nitric Oxide-Donating Ripasudil Derivatives with Intraocular Pressure Lowering and Retinal Ganglion Cell Protection Activities” (J Med Chem, 2022).
# Activity calls are given as the source filed them.
# Key:
# [1] = target: Rho-associated protein kinase 2 (Homo sapiens, UniProt O75116); test: Inhibition of ROCK2 (unknown origin) using biotin as substrate incubated for 1 hr by HTRF assay
# [2] = target: Rho-associated protein kinase 1 (Homo sapiens, UniProt Q13464); test: Inhibition of ROCK1 (unknown origin) using biotin as substrate incubated for 1 hr by HTRF assay
# Rho-associated protein kinase 1, sequence (Q13464 whole entry): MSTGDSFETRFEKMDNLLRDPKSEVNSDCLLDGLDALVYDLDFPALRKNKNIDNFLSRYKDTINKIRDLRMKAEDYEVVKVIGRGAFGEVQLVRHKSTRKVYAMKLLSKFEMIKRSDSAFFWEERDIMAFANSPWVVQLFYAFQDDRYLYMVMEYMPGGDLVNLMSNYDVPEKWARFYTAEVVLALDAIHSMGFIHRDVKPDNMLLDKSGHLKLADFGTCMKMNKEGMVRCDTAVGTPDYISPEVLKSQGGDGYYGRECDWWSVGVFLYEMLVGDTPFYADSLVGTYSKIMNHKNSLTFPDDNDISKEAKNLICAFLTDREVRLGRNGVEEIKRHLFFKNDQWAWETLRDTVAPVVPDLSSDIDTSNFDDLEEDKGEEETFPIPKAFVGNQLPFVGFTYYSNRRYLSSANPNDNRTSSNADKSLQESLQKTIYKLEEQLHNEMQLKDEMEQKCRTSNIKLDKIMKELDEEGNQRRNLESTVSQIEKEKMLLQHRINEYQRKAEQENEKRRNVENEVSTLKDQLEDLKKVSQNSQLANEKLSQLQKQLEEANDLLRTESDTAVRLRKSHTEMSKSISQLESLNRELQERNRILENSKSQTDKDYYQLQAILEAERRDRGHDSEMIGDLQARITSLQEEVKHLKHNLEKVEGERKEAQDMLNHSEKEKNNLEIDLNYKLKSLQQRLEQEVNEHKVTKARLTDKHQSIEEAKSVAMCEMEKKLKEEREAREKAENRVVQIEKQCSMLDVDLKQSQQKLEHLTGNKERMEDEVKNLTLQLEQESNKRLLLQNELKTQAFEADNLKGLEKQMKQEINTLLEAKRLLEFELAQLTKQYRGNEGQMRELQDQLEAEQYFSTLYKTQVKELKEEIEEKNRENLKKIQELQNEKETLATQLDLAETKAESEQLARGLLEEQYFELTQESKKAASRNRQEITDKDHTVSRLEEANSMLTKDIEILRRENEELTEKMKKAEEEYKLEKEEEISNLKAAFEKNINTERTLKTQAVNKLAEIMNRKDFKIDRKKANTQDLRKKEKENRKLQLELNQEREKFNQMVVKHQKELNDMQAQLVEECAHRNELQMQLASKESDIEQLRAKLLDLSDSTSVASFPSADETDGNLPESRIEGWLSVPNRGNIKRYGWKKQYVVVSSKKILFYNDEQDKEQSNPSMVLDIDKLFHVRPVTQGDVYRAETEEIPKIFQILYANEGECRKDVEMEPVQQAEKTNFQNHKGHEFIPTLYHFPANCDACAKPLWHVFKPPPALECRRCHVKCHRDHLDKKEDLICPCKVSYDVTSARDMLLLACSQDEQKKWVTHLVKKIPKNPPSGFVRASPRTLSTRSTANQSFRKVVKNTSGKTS
# [3] = Ocular toxicity in C57BL/6J mouse assessed as effect on conjunctival hyperemia at 0.07% solution administered via topical instillation and measured at 1 to 4 hrs post instillation in presence of ripasudil; conditions: in vivo, topical_or_ocular, time 1-4 hrs, route top
# [4] = tested on: Mus musculus; test: Antiglaucoma activity in microspheres induced chronic ocular hypertension C57BL/6J mouse model assessed as reduction in intraocular pressure at 0.07% solution administered via topical instillation for three times per day and measured at 1 to 6 hrs post instillation in presence of ripasudil by ophthalmotonometer; assay type: functional, organism-based; conditions: route top, time 1-6 hrs
# [5] = tested on: HTM; test: Inhibtion of mitochondrial respiration in HTM cells assessed as repression of oxygen consumption rate at 10 uM incubated for 1 hr by Seahorse XF24 extracellular flux analyzer; assay type: functional, cell-based; conditions: Homo sapiens
# [6] = tested on: HTM; test: Inhibtion of mitochondrial respiration in HTM cells assessed as oxygen consumption rate by measuring decrease in ATP production at 10 uM incubated for 1 hr by Seahorse XF24 extracellular flux analyzer; assay type: functional, cell-based; conditions: Homo sapiens
# [7] = tested on: HTM; test: Inhibtion of mitochondrial respiration in HTM cells assessed as oxygen consumption rate by measuring decrease in maximal respiration at 10 uM incubated for 1 hr by Seahorse XF24 extracellular flux analyzer; assay type: functional, cell-based; conditions: Homo sapiens
# [8] = tested on: HTM; test: Inhibtion of mitochondrial respiration in HTM cells assessed as oxygen consumption rate by measuring decrease in basal respiration at 10 uM incubated for 1 hr by Seahorse XF24 extracellular flux analyzer; assay type: functional, cell-based; conditions: Homo sapiens
# [9] = tested on: HTM; test: Induction of reversible F-actin depolymerization in HTM cells assessed as irregular arrangement of fiber bundles at 10 uM incubated for 1 hr and further incubated for 4 hrs in drug free medium by rhodamine phalloidin staining based confocal scanning microscopic analysis; assay type: cell-based; conditions: Homo sapiens
# [10] = Ocular toxicity in C57BL/6J mouse assessed as effect on conjunctival hyperemia at 0.2% solution administered via topical instillation and measured at 1 to 4 hrs post instillation; conditions: in vivo, topical_or_ocular, time 1-4 hrs, route top
# [11] = tested on: HTM; test: Downregulation of phosphorylated MLC expression in HTM cells at 10 uM incubated for 1 hr by Western blotting analysis; assay type: functional, cell-based; conditions: Homo sapiens
# [12] = tested on: HTM; test: Effect on MLC expression in HTM cells assessed as reduction in phosphorylated MLC/MLC ratio at 10 uM incubated for 1 hr by densitometry analysis; assay type: functional, cell-based; conditions: Homo sapiens
# [13] = tested on: Mus musculus; test: Antiglaucoma activity in microspheres induced chronic ocular hypertension C57BL/6J mouse model assessed as reduction in intraocular pressure at 0.2% solution administered via topical instillation for three times per day and measured at 1 to 6 hrs post instillation by ophthalmotonometer; assay type: functional, organism-based; conditions: route top, time 1-6 hrs
# [14] = tested on: HTM; test: Effect of compound on intracellular cGMP concentration in HTM cells assessed as increase in cGMP level at 10 uM incubated for 24 hrs by ELISA; assay type: functional, cell-based; conditions: Homo sapiens
# [15] = tested on: HTM; test: Induction of NO release in HTM cells assessed as increase in positive area by DAF-FM DA dye based flow cytometry analysis; assay type: functional, cell-based; conditions: Homo sapiens
# [16] = tested on: HTM; test: Induction of NO release in HTM cells assessed as increase in fluorescence intensity by DAF-FM DA dye based flow cytometry analysis; assay type: functional, cell-based; conditions: Homo sapiens
# [17] = Ocular toxicity in C57BL/6J mouse assessed as effect on conjunctival hyperemia at 0.26% solution administered via topical instillation and measured at 1 to 4 hrs post instillation; conditions: in vivo, topical_or_ocular, time 1-4 hrs, route top
# [18] = Ocular toxicity in New Zealand white albino rabbit assessed as effect on ocular irritation at 0.579% solution administered via topical instillation and measured at 1 to 4 hrs post instillation by draize's test; design: species or system Oryctolagus cuniculus; conditions: in vivo, topical_or_ocular, time 1-4 hrs, route top
# [19] = tested on: Mus musculus; test: Antiglaucoma activity in microspheres induced chronic ocular hypertension C57BL/6J mouse model assessed as increase in visual acuity under maximum contrast condition at 0.26% solution administered via topical instillation and measured after 10 days by optokinetic reflex test; assay type: functional, organism-based; conditions: route top, time 10.0 day
# [20] = tested on: HTM; test: Inhibtion of mitochondrial respiration in HTM cells assessed as oxygen consumption rate by measuring decrease in coupling efficiency at 10 uM incubated for 1 hr by Seahorse XF24 extracellular flux analyzer; assay type: functional, cell-based; conditions: Homo sapiens
# [21] = tested on: Mus musculus; test: Antiglaucoma activity in microspheres induced chronic ocular hypertension C57BL/6J mouse model assessed as increase in number of RGCs in retina at 0.26% solution administered via topical instillation and measured after 10 days by immunostaining based confocal microscopic analysis; assay type: functional, organism-based; conditions: route top, time 10.0 day
# [22] = tested on: Mus musculus; test: Antiglaucoma activity in microspheres induced chronic ocular hypertension C57BL/6J mouse model assessed as reduction in intraocular pressure at 0.26% solution administered via topical instillation for three times per day and measured at 1 to 6 hrs post instillation by ophthalmotonometer; assay type: functional, organism-based; conditions: route top, time 1-6 hrs
# [23] = tested on: HTM; test: Inhibtion of mitochondrial respiration in HTM cells assessed as oxygen consumption rate by measuring decrease in proton leak at 10 uM incubated for 1 hr by Seahorse XF24 extracellular flux analyzer; assay type: functional, cell-based; conditions: Homo sapiens
# [24] = tested on: Mus musculus; test: Antiglaucoma activity in microspheres induced chronic ocular hypertension C57BL/6J mouse model assessed as reduction in contrast sensitivity threshold at 0.26% solution administered via topical instillation and measured after 10 days by optokinetic reflex test; assay type: functional, organism-based; conditions: route top, time 10.0 day
# Rho-associated protein kinase 2, sequence (O75116 whole entry): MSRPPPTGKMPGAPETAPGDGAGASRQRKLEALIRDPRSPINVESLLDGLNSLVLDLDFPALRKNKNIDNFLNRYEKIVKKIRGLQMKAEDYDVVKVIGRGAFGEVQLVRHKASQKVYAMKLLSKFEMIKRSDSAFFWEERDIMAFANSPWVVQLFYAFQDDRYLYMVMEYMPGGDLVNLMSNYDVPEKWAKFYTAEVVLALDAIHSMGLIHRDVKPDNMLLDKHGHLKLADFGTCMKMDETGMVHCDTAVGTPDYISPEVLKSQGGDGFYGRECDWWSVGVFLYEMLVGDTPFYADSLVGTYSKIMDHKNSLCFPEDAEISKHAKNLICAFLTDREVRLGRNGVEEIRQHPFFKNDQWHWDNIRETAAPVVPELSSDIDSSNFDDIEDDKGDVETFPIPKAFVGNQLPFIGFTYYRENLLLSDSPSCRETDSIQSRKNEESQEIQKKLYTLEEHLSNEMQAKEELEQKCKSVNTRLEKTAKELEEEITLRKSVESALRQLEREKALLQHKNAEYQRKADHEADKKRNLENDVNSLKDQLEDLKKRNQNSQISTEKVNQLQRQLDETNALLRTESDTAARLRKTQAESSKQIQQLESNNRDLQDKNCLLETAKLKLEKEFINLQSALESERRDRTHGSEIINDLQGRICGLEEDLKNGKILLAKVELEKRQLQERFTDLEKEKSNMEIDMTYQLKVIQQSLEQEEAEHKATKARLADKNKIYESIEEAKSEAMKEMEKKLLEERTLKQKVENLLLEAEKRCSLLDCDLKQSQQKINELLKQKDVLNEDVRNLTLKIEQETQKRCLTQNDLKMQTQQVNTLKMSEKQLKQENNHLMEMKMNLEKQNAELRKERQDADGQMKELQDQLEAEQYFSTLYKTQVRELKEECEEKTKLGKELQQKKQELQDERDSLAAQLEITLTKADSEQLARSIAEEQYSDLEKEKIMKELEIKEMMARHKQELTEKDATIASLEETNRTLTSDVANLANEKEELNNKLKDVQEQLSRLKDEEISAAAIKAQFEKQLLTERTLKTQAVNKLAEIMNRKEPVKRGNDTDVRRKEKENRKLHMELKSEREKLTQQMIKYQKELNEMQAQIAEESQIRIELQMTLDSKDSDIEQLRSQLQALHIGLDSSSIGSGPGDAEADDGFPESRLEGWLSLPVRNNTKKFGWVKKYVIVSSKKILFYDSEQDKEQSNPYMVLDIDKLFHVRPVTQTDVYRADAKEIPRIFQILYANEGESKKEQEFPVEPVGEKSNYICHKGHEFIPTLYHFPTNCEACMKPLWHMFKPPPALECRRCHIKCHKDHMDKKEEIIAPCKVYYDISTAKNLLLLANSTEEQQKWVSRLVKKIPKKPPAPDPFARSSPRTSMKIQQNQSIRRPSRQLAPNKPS
SMILES,IC50 [1],IC50 [2],Activity [6],Activity [8],Activity [9],Activity [11],Activity [12],Activity [14],Activity [15],Activity [16],other results
O=[N+]([O-])OCCCCO,–,–,–,–,–,–,–,–,–,–,Activity [3]: Non-Toxic; Activity [4]: Active
CCCCOC(=O)N1CCCN(S(=O)(=O)c2cccc3cncc(F)c23)[C@@H](C)C1,–,–,Active,Active,–,–,–,–,–,–,Activity [5]: Active; Activity [7]: Active
C[C@H]1CN(C(=O)O[C@@H]2CO[C@H]3[C@@H]2OC[C@@H]3O[N+](=O)[O-])CCCN1S(=O)(=O)c1cccc2cncc(F)c12,19.5 nM,53.6 nM,–,–,Active,Active,Active,Active,Active,Active,–
C[C@H]1CN(C(=O)OCCCCO[N+](=O)[O-])CCCN1S(=O)(=O)c1cccc2cncc(F)c12 [listing 2 of 2 here],–,–,Active,Active,Active,Active,Active,Active,Active,Active,Activity [5]: Active; Activity [7]: Active; Activity [19]: Active; Activity [20]: Active; Activity [21]: Active; Activity [22]: Active; Activity [23]: Active; Activity [24]: Active
C[C@H]1CN(C(=O)OCCCCCO[N+](=O)[O-])CCCN1S(=O)(=O)c1cccc2cncc(F)c12,25.2 nM,44.6 nM,–,–,Active,Active,Active,Active,Active,Active,–

# More lines, in order of falling IC50 [1], values ahead:
IC50 [1],IC50 [2],SMILES,Activity [6],Activity [8],Activity [9],Activity [11],Activity [12],Activity [14],Activity [15],Activity [16],other results
58.4 nM,47.3 nM,C[C@H]1CN(C(=O)OCCO[N+](=O)[O-])CCCN1S(=O)(=O)c1cccc2cncc(F)c12,–,–,Active,Active,Active,Active,Active,Active,–
47.4 nM,58.3 nM,C[C@H]1CN(C(=O)OCCCCO[N+](=O)[O-])CCCN1S(=O)(=O)c1cccc2cncc(F)c12 [listing 1 of 2 here],–,–,–,–,–,–,–,–,–
25.1 nM,104 nM,C[C@H]1CN(C(=O)OCCCO[N+](=O)[O-])CCCN1S(=O)(=O)c1cccc2cncc(F)c12,–,–,Active,Active,Active,Active,Active,Active,–
21.4 nM,–,C[C@H]1CNCCCN1S(=O)(=O)c1cccc2cncc(F)c12.Cl.O.O [RIPASUDIL HYDROCHLORIDE DIHYDRATE],Active,Active,Active,Active,Active,–,–,–,Activity [10]: Non-Toxic; Activity [13]: Active
16.6 nM,34.2 nM,C[C@H]1CN(C(=O)OCCCCO[N+](=O)[O-])CCCN1S(=O)(=O)c1cccc2cncc(F)c12.Cl,–,–,–,–,–,–,–,–,Activity [17]: Non-Toxic; Activity [18]: Non-Toxic
